Results reported in patent publication US9527857B2, “HSPC-sparing treatments for RB-positive abnormal cellular proliferation” (G1 Therapeutics, Inc., priority 2013, dated 2016).
Entries after “also recorded” stand apart in the source; their conditions may differ.

Columns and labels:
[1] = Metabolic stability in liver microsomes; format: in vitro ADME, human, dog, rat, monkey, and mouse; details: each of the species tested
Protocol: Human, mouse, and dog liver microsomes were purchased from Xenotech, and Sprague-Dawley rat liver microsomes were prepared by Absorption Systems. The reaction mixture comprising 0.5 mg/mL of liver microsomes, 100 mM of potassium phosphate, pH 7.4, 5 mM of magnesium chloride, and 1 uM of test compound was prepared. The test compound was added into the reaction mixture at a final concentration of 1 uM. An aliquot of the reaction mixture (without cofactor) was incubated in shaking water bath at 37 deg. C. for 3 minutes. The control compound, testosterone, was run simultaneously with the test compound in a separate reaction. The reaction was initiated by the addition of cofactor (NADPH), and the mixture was then incubated in a shaking water bath at 37 deg. C. Aliquots (100 μL) were withdrawn at 0, 10, 20, 30, and 60 minutes for the test compound and 0, 10, 30, and 60 minutes for testosterone. […] Test compound samples were analyzed using the Orbitrap high resolution mass spectrometer to quantify the disappearance of parent test compound and detect the appearance of metabolites. […] Half-lives were calculated using GraphPad software, fitting to a single-phase exponential decay equation.
When calculated half-life was longer than the duration of the experiment, the half-life was expressed as >the longest incubation time. The calculated half-life is also listed in parentheses. […]

HSPCs (LKS+) = test: Bone marrow HSPC proliferation by EdU incorporation and flow cytometry; format: in vivo; details: 150 mg/kg oral gavage, mice
Protocol: . JCNI 2012; 104(6):476-487 (FIG. 2A). […].
Mice were then sacrificed at the indicated times (0, 12, 24, 36, or 48 hours following compound administration), and bone marrow was harvested (n=3 mice per time point), as previously described (Johnson et al. J. Clin. Invest. (2010) 120(7), 2528-2536). Four hours before the bone marrow was harvested, mice were treated with 100 μg of EdU by intraperitoneal injection (Invitrogen). Bone marrow mononuclear cells were harvested and immunophenotyped using previously described methods and percent EdU positive cells were then determined (Johnson et al. J. Clin. Invest. (2010) 120(7), 2528-2536). In brief, HSPCs were identified by expression of lineage markers (Lin−), Sca1 (S+), and c-Kit (K+).
Four hours before animals were sacrificed and the bone marrow was harvested, mice were treated with 100 μg of EdU by intraperitoneal injection. Three mice per group were sacrificed at 12 hours and the remaining three animals per group were sacrificed at 24 hours. Results are shown in FIG. 5A as the ratio of EdU positive cells for treated animals at 12 or 24 hour time points compared to control.
Further experiments were completed with Compound T examining dose response and longer periods of compound treatment. […] […].
Both compounds were administered at 150 mg/kg by oral gavage. One hour prior to harvesting bone marrow, EdU was IP injected to label cycling cells. Bone marrow was harvested at 12, 24, 36, and 48 hours after compound treatment and the percentage of EdU positive HSPC cells was determined at each time point.

[2] = system: A2058 cells (CDK4/6-independent, Rb-negative); test: Cell cycle arrest (propidium iodide flow cytometry), A2058; format: cell-based; details: 300 nM, 24 hours
From the text: To test the ability of CDK4/6 inhibitors to induce a clean G1-arrest, a cell based screening method was used consisting of two CDK4/6-dependent cell lines (tHS68 and WM2664; Rb-positive) and one CDK4/6-independent (A2058; Rb-negative) cell line. […] At the conclusion of the experiment, cells were harvested, fixed, and stained with propidium iodide (a DNA intercalator), which fluoresces strongly red (emission maximum 637 nm) when excited by 488 nm light. Samples were run on Dako Cyan flow cytometer and >10,000 events were collected for each sample. Data were analyzed using FlowJo 2.2 software developed by TreeStar, Inc.

CN1CCN(c2ccc(Nc3ncc4cc5n(c4n3)C3(CCCCC3)CNC5=O)nc2)CC1 [T]
half-life in liver microsomes compared with PD0332991 [1]: shorter in each species | EdU incorporation into HSPCs at 12 and 24 hours (FIG. 5A) (HSPCs (LKS+)): reduction in EdU incorporation at 12 hours which was starting to return to normal at 24 hours | cell cycle distribution after treatment [2]: no effect; also recorded: does not cause a loss of the S-phase peak
